Where no end group is shown, it is not given here. [ ]: non-standard residue; d: D form.
Assays:
[1] = system: HIV-1IIIB; assay: HIV-1 antiviral assay in CEM-SS cells (MTS readout)
[2] = system: HCMV strain AD169; assay: HCMV plaque formation assay in MRC-5 cells; conditions: 10 micrograms per ml, 7-10 days
[3] = system: Interleukin-4 (IL-4); assay: Th1/Th2 cytokine profiling assay: IL-4; assay type: cell-based, mouse; conditions: 10 micrograms per ml; Ovalbumin-restimulated murine spleen cells; 72 hours
Experimental: (§1) On day 50, spleens of the mice were harvested (3 weeks after last boost with Ovalbumin). Cells were cultured (2×10^5/well in triplicate) and incubated with culture medium or test peptides—10 micrograms per ml—for 30 min. […] This kit can be used to measure Interleukin-2 (IL-2), Interleukin-4 (IL-4), Interleukin-5 (IL-5), Interferon-γ (IFN-γ), and Tumor Necrosis Factor-a (TNF-a) protein levels in a single sample. The kit performance has been optimized for analysis of physiologically relevant concentrations (μg/ml levels) of specific cytokine proteins in tissue culture supernatants and serum samples.

[4] = system: hepatitis B virus (HBV) ayw strain; assay: HBV assay in HepG2-2.2.15 cells (secreted HBV DNA, TaqMan PCR); assay type: cell-based; conditions: 10 micrograms per ml, six days, combination 0.95 mole peptide 1 and 1.05 mole peptide 2
From the text: HepG2-2.2.15 is a stable cell line containing the hepatitis B virus (HBV) ayw strain genome (ATCC Cat. No. CRL-11997). Antiviral compounds blocking any late step of viral replication such as transcription, translation, pregenome encapsidation, reverse transcription, particle assembly and release can be identified and characterized using this cell line. In this assay, an active compound will reduce the production of secreted HBV from cells, measured by utilizing real time quantitative PCR (TaqMan) assay to directly and accurately measure HBV DNA copies.
HepG2-2.2.15 cells were plated in 96-well microtiter plates. After 16-24 hours the confluent monolayer of HepG2-2.2.15 cells was washed and the medium was replaced with complete medium containing test peptides—10 micrograms per ml—in duplicate. […] Six days following the initial administration of the peptides, the cell culture supernatants was collected, treated with pronase and DNAse and then used in a real-time quantitative TaqMan PCR assay. The PCR-amplified HBV DNA was detected in real-time by monitoring increases in fluorescence signals that result from the exonucleolytic degradation of a quenched fluorescence probe molecule that hybridizes to the amplified HBV DNA. […] Antiviral activity was calculated from the reduction in HBV DNA levels (% virus control). […]

[5] = system: HUVEC; assay: Endothelial tube formation assay; assay type: cell-based, human; conditions: 10 micrograms per ml, 20 hours
From the text: Positive control was vehicle only.

[6] = system: Interleukin-5 (IL-5); assay: Th1/Th2 cytokine profiling assay: IL-5; assay type: cell-based, mouse; conditions: 10 micrograms per ml; Ovalbumin-restimulated murine spleen cells; 72 hours
Experimental: as §1

[7] = system: Primary Human endothelial cells (HUVEC); assay: Endothelial cell migration assay; assay type: cell-based; conditions: 10 micrograms per ml, 22 hours
Experimental: Thereafter, designated concentration of testing peptides was added in duplicate wells.

[8] = system: Tumor Necrosis Factor-a (TNF-a); assay: Th1/Th2 cytokine profiling assay: TNF-alpha; assay type: cell-based, mouse; conditions: 10 micrograms per ml; Ovalbumin-restimulated murine spleen cells; 72 hours
Experimental: as §1

[9] = system: Interferon-γ (IFN-γ); assay: Th1/Th2 cytokine profiling assay: IFN-γ; assay type: cell-based, mouse; conditions: 10 micrograms per ml; Ovalbumin-restimulated murine spleen cells; 72 hours
Experimental: as §1

[10] = system: Interleukin-2 (IL-2); assay: Th1/Th2 cytokine profiling assay: IL-2; assay type: cell-based, mouse; conditions: 10 micrograms per ml; Ovalbumin-restimulated murine spleen cells; 72 hours
Experimental: as §1

Row | Molecule | antiviral activity of positive control compounds (HIV-1) [1] | inhibition of HCMV plaque formation as compared to the virus control experiment [2] | increase of the production of IL-4 [3] | inhibition of HBV replication as compared to the virus control infection [4] | increase of the tube formation of human endothelial cells [5] | change of the production of IL-5 [6] | increase of the migration of endothelial cells [7] | change of the production of TNF-alpha [8] | increase of the production of IFN-γ [9] | increase of the production of IL-2 [10] | change of the production of IL-4 [3] | decrease of the production of IL-5 [6] | inhibition of the migration of human endothelial cells [7] | decrease of the production of IFN-γ [9]
1 | Cc1cn([C@H]2C[C@H](N=[N+]=[N-])[C@@H](CO)O2)c(=O)[nH]c1=O [AZT] | expected levels of antiviral activity | – | – | – | – | – | – | – | – | – | – | – | – | –
2 | CC(C)(C)NC(=O)[C@@H]1CN(Cc2cccnc2)CCN1C[C@@H](O)C[C@@H](Cc1ccccc1)C(=O)N[C@H]1c2ccccc2C[C@H]1O [indinavir] | expected levels of antiviral activity | – | – | – | – | – | – | – | – | – | – | – | – | –
3 | Ac-Arg-Phe-Met-Trp-Met-Arg-NH2 (Ac-RFMWMR-NH2) [Peptide 2] | – | 2.9% | 56.2% | 26.3% | 4% | did not significantly change | 15% | did not significantly change | 118.6% | 56.5% | – | – | – | –
4 | HPFHL[dL]VY-OH [Peptide 1] | – | did not inhibit | – | 24.3% | 2% | – | – | did not significantly change | – | 82.1% | did not significantly change | 34.5% | 26% | 43.3%
